Measured values taken from patent publication US10967038B2, “Use of cell-permeable peptide inhibitors of the JNK signal transduction pathway for the treatment of chronic or non-chronic inflammatory eye diseases” (priority 2010, dated 2021).

Columns and labels:
Format in all cases: in vivo, rat
[1] = system: phospho-p44/42 MAPK (Erk1/2); assay: Immunohistochemistry of phospho-p44/42 MAPK (Erk1/2) in EIU eyes; conditions: 24 h
Description: (§1) A second set of experiment was designed to evaluate the anti-inflammatory effect of the JNK-inhibitor (poly-)peptide of SEQ ID NO: 11 at the cellular and tissue level as well as the biodistribution of this molecule 24 hours after administration. Rats were randomized into 11 experimental groups. 6 groups of rats with uveitis: untreated uveitic rats, rats injected intravenously with NaCl or the JNK-inhibitor (poly-)peptide of SEQ ID NO: 11 and rats injected intravitreously with the vehicle, the JNK-inhibitor (poly-)peptide of SEQ ID NO: 11 or dexamethasone. The 5 additional groups without uveitis were: untreated healthy rats, rats treated by NaCl IV or the JNK-inhibitor (poly-)peptide of SEQ ID NO: 11 IV and rats injected IVT with NaCl or the JNK-inhibitor (poly-)peptide of SEQ ID NO: 11. Three eyes from separate rats were collected per group and used for immunohistochemistry.
To analyze the ERK and p38 MAPK pathways, blots were sequentially incubated with a rabbit phospho-p44/42 MAPK (Erk1/2) (Thr202/Tyr204) (4370) primary antibody (or rabbit phospho-p38 MAPK (Thr180/Tyr182) (9215) antibody) and a horseradish peroxidase-conjugated goat anti-rabbit IgG (H+L) (PI-1000—Vector Laboratories, Clinisciences, Montrouge, France) secondary antibody at dilution 1:5000. […]

[2] = Ocular biodistribution by immunohistochemistry against SEQ ID NO: 11
Description: For immunohistochemistry, eyeballs were collected and fixed for 1 h at room temperature in phosphate buffered saline (PBS) containing 4% paraformaldehyde before being rinsed overnight in PBS. The next day, samples were embedded and frozen in optimal cutting-temperature (OCT) compound (Tissue-Tek®, Sakura Finetek, Zoeterwoude, Netherland) and stored at −80° C. Frozen antero-posterior sections of eyes (10 μm thick) were performed at the optic nerve level using a cryostat (Leica CM 3050S, Rueil-Malmaison, France) and mounted on super-frost slides for immunohistochemical analysis.
as §1
Immunostaining of the JNK-inhibitor (poly-)peptide of SEQ ID NO: 11 was performed on healthy and uveitic eyes to study its ocular biodistribution after systemic or local administration. Briefly, sections were permeabilized as described above before being sequentially incubated with an anti-SEQ ID NO: 11 purified rabbit IgG and a secondary Alexa 594 (red)-conjugated goat anti-rabbit IgG (Invitrogen, Cergy Pontoise, France) diluted 1:100 and 1:250 in PBS respectively. Immunostaining of untreated healthy and uveitic eyes were used as negative controls. Nuclei were stained with DAPI before mounting and observation.

[3] = system: inducible nitric oxide synthase (iNOS); assay: iNOS expression in ocular tissues (immunohistochemistry, semi-quantitative RT-PCR); conditions: IV or IVT, 24 h, vs control eyes
Description: Retinas and RPE/choroid/sclera complexes were also collected at 24 hours to analyze iNOS mRNA levels by RT-PCR and c-Jun phosphorylation state by Western-Blot. Tissues were collected only from eyes treated by IV (intravenous) injection of vehicle, IV injection of the JNK-inhibitor (poly-)peptide of SEQ ID NO: 11, IVT (intravitreal) injection of vehicle and IVT injection of the JNK-inhibitor (poly-)peptide of SEQ ID NO: 11 (n=2 eyes per condition collected from separate rats). Eyes were selected so that their EIU clinical score was representative of the mean of the experimental group they belong to, i.e 3 for eyes treated by IV and IVT injection of vehicle and 2 for eyes treated by IV or IVT injection of the JNK-inhibitor (poly-)peptide of SEQ ID NO: 11.
To characterize the cellular infiltrate, sections were double-stained with ED1 and iNOS. […] After staining nuclei with DAPI (Sigma-Aldrich, Saint-Quentin Fallavier, France), sections were mounted in PBS/Glycerol (1/1) and observed by fluorescence photomicroscopy (FXA, Microphot, Nikon, Melville, USA). […] ED1 positive cells and polymorphonuclear cells, identified by the shape of their nuclei stained with DAPI, were quantified on histological sections. […] Results were expressed as mean±standard error of the mean (SEM). […]

[4] = system: chemokines/cytokines; assay: Chemokine/Cytokine Multiplex Assay on ocular fluids and sera
Description: Aqueous humor and vitreous were collected and pooled from each enucleated eye. Ocular fluids were immediately centrifuged and the cell-free fractions were collected and frozen at −20° C. before analysis by Multiplex assay. Blood samples were first clotted at room temperature for 2 hours and then at 4° C. overnight. Serum was collected, centrifuged and the clear supernatant was collected and frozen at −20° C. before Multiplex analysis.
In a first set of experiment, 70 rats were randomized into 14 experimental groups with 5 rats per group. Uveitis was induced in each group and rats were killed 6 hours (4 groups), 24 hours (6 groups) and 48 hours (4 groups) after LPS challenge. For each time point tested (i.e. 6 h, 24 h and 48 h), rats treated by intravenous or intravitreous injections of vehicle (NaCl 0.9%) or the JNK-inhibitor (poly-)peptide of SEQ ID NO: 11 were compared to untreated control uveitic rats. Two additional groups, treated by intravenous injection of vehicle and intravitreal injection of dexamethasone were used at 24 hours. Clinical ocular inflammation was recorded only at 24 hours (see Scoring of Endotoxin-Induced Uveitis (EIU) section). At each time point, intraocular fluids from each eye (n=10 per group) and serum from each animal (n=5 per group) were used for Chemokine/Cytokine Multiplex Assay.
Intraocular fluids (diluted to obtain a final volume of 25 μL) and sera (25 μL of 1:5 dilution) were subjected to multiplex bead analysis. This method uses microspheres as the solid support for immunoassays12 and allows the titration of a greater number of cytokines with increased sensitivity than occurs with ELISA.13 For each sample, seventeen analytes were quantified simultaneously using the rat Cytokine/Chemokine-17plex kit (Milliplex Map Kit, Millipore, Saint-Quentin-en-Yvelines, France) according to the manufacturer's instructions: Chemokines MCP-1/CCL2, MIP-1α/CCL3, RANTES/CCL5, IP-10/CXCL10 (IFN-inducible protein-10) and GRO/KC; proinflammatory mediators IL-1[…], IL-18 and TNF-[…]; Th1/Th2/Th17 cytokines IL-2 and IFN-[…]/IL-4, IL-5, IL-6, IL-10 and IL-13/IL-17. The assay was performed in a 96-well filter plate and standard curves for each cytokine were generated with a Rat Cytokine Standard provided in the kit. All incubation steps were performed under medium orbital agitation and in the dark to protect the beads from light. Data acquisition and analysis were performed with the manager software version 4.1 (Bioplex; Bio-Rad) with four or five logistic parameters for standard curves. Detection thresholds for all the analytes were estimated around 1 to 10 pg/mL.

[5] = ocular fluids, IV injection, at 6 and 24 hours
[6] = ocular fluids, IV injection, at different time points
[7] = ocular fluids, IVT injection, at 6 hours, vs vehicle IVT
[8] = ocular fluids, IVT injection, at 24 hours, vs vehicle IVT
[9] = ocular fluids, treated versus untreated eyes, any tested time point

## CC(C)C[C@@H](NC(=O)[C@@H](Cc1ccccc1)NC(=O)[C@H]1CCCN1C(=O)[C@@H](CCC(N)=O)NC(=O)[C@H](NC(=O)[C@H]1CCCN1C(=O)[C@@H](CCCNC(=N)N)NC(=O)[C@@H](CO)NC(=O)[C@@H](CCC(N)=O)NC(=O)[C@H](N)CC(=O)O)C(C)C)C(=O)N[C@H](CC(N)=O)C(=O)N[C@H](CC(C)C)C(=O)N[C@@H](C(=O)N[C@@H](C(=O)N1CCC[C@@H]1C(=O)N[C@H](CCCNC(=N)N)C(=O)N[C@H](CCCCN)C(=O)N1CCC[C@@H]1C(=O)N[C@H](CCCNC(=N)N)C(=O)N1CCC[C@@H]1C(=O)N1CCC[C@@H]1C(=O)N[C@H](CCCNC(=N)N)C(=O)N[C@H](CCCNC(=N)N)C(=O)N[C@H](CCCNC(=N)N)C(=O)N[C@H](CCC(N)=O)C(=O)N[C@H](CCCNC(=N)N)C(=O)N[C@H](CCCNC(=N)N)C(=O)N[C@H](CCCCN)C(=O)N[C@H](CCCCN)C(=O)N[C@H](CCCNC(=N)N)C(=O)NCC(=O)O)[C@H](C)O)[C@H](C)O [SEQ ID NO: 11]
[1]; iris
  effect on p-Erk1/2 signal in iris epithelium: no effect
[1]; neuroretina, IV or IVT
  effect on p-Erk1/2 signal in retinal Müller glial (RMG) cells: no effect
[2]; EIU eyes, 24 h after IV injection, occasional infiltrating inflammatory cells immunopositive
  distribution in ocular tissues (immunoreactivity): not detected in ocular tissues
[2]; healthy eyes, 24 h after IV injection, 20 μg/kg
  distribution in ocular tissues (immunoreactivity): no signal was observed
[2]; healthy eyes, 24 h after IV or IVT
  inflammatory cell infiltration in healthy eyes: No inflammatory cell infiltration was observed
[2]; healthy eyes, 24 h after IVT injection, 0.2 μg/injection
  distribution in ocular tissues (immunoreactivity): distributed in almost all ocular tissues
[2]; uveitic eyes, 24 h after IVT injection, also in mobilized resident cells (microglial)
  distribution in ocular tissues (immunoreactivity): mostly found in ocular tissues like in healthy eyes
[3]
  number of iNOS positive cells: reduced
[4]; [5]
  MCP-1 level: significant reduction
  MIP-1α level: significant reduction
  RANTES level: significant reduction
[4]; ocular fluids, IV injection, at 6 hours
  GRO/KC level: significantly reduced
[4]; ocular fluids, IV injection, at 6 hours, not significantly
  IL-10 level: tended to increase
[4]; [6]
  IL-6 level: significantly reduced
  INF-γ level: significantly reduced
  TNF-α level: significantly reduced
[4]; [7]
  IL-2 level: a trend to a decrease
  IL-6 level: a trend to a decrease
  MCP-1 level: a trend to a decrease
  TNF-α level: a trend to a decrease
[4]; [8]
  IL-2 level: marked decrease
  IL-13 level: increase
[4]; [9]
  IL-1β level: did not differ
  IL-4 level: did not differ
  IL-18 level: did not differ
[4]; serum, IV administration
  IL-2 level (tended to be reduced): not statistically significant
  MIP-1α level (tended to be reduced): not statistically significant
[4]; serum, IVT administration
  IL-2 level (tended to be reduced): not statistically significant
